# Test results from US10016382B2, “Method for decreasing skeletal muscle damage and/or oxidative stress in mammals” (LONZA INC., priority 2014, dated 2018).
# How the values were obtained:
# Type in all cases: in vivo, dog
# canine myoglobin [1] = assay: Serum canine myoglobin ELISA (muscle damage biomarker), Example 1; details: for Change in Myoglobin, post-run minus pre-run: following 15 mile long run at 13 wk, mean ± SEM
# Protocol: Blood Analysis: Serum samples were taken at three different times from each dog during the 90 day period. The blood samples were collected as follows: 1.) just prior to scanning each dog for body composition at the beginning of the study, 2.) prior to the long run on the 13th week, and 3.) following the long run on the 13th week. The serum samples were analyzed for Phosphocreatine Kinase and Canine Myoglobin to determine the amount of muscle protein leakage that occurred following the long run and TBARS and Total Antioxidant Capacity (TAC) were determined to evaluate the antioxidant status of each of the test dogs during the exercise program. The final blood sample was taken 24 hr after the long run to obtain maximum protein leakage based on previous similar types of exercise research with human athletes. Biomarkers and Assay Methods: Blood was drawn from each dog using a serum separator tube at three different times during the 90 day period: 1.) just prior to scanning each dog for body composition at the beginning of the study, 2.) prior to the long run on the 13th week, and 3.) following the long run on the 13th week. The final blood sample was taken 24 hr after the long run to obtain maximum protein leakage based on previous similar types of exercise research with human athletes. Each time after the blood was drawn it was allowed to clot before being centrifuged for 15 min at 2000 g at 4° C. Serum was aliquoted into 1.5 mL microcentrifuge tubes and stored at −80° C. until assays were ran following the end of the study. Creatine kinase (CK) and canine myoglobin were measured to determine the amount of muscle protein leakage that occurred following the long run. Thiobarbituric acid reactive substances (TBARS) and total antioxidant capacity (TAC) were measured to evaluate the antioxidant status of each of the test dogs during the exercise program. Serum samples were analyzed for total antioxidant capacity (TAC) and thiobarbituric acid reactive substances (TBARS) using commercially available colorimetric kits supplied by Cayman Chemical Company (Ann Arbor, Mich.) per manufacturer instructions. Serum canine myoglobin levels were determined using a commercially available ELISA supplied by Innovate Research (Novi, Mich.) per manufacturer instructions. Creatine kinase activity was determined colorimetrically using a commercially available kit supplied by BioVision (San Francisco, Calif.).
# Labrador Retrievers = assay: Activity (APM, APM/kg) by Actical monitor and GPS collar, Example 2 part one; details: for APM / APM/kg: crossover L-carnitine dogs
# Source text: Both the L-carnitine and control performance dogs were put through a weekly running program consisting of two evenly distributed endurance runs. Groups ranging between 6 and 10 dogs were run together, including both treatments in each group. The endurance runs increased incrementally by 0.5 miles per week (5 miles/session increasing to 10 miles per session over an 11 week period). The dogs were allowed a 1 day rest between runs and a 3 day rest before a scheduled exercise distance increase. The dogs were put through maintenance runs of 5 miles twice in the 12th week and then 2 miles twice in the 13th week. All dogs had at least 4 days of rest prior to the final 15 miles run in the 14th week. The first exercise session during the week consisted only of endurance style running, while the second session included short 100 m sprints at each mile interval in order to incorporate measurable anaerobic exercise into the weekly regimen. The endurance runs were slightly slower to enhance fat oxidation and represent an exercise intensity equivalent to 50%-65% VO2 max. Each performance dog wore the Actical activity monitor and GPS tracking collar during the last 15 mile endurance run. The final run was conducted in a manner analogous to that of Example 1. All activity was accurately and precisely calculated using the GPS tracking monitors. Immediately following the 15 mile endurance run, each dog was placed in a kennel and evaluated for recovery time in body temperature (every 15 minutes for 2 hours) and heart rate (every 2 minutes for up to 20 minutes until basal beats per minute (BPM) was reached). Body temperature and heart rate were measured as described in Example 1.
# canine myoglobin [2] = assay: Serum canine myoglobin, Example 2 part one; details: for Serum myoglobin: Ex.2 part one, 250 mg/d; for Myoglobin: serum
# Protocol: Twenty-four hours after test dogs ran the last 15 mile endurance run, serum samples were taken to evaluate biomarkers for muscle damage and antioxidant status. Blood samples were taken 1) just prior to the beginning of the study; 2) 1 day prior to running the final 15 mile run on the 14th week; 3) 1 hour immediately following the 15 mile run; and 4) 24 hours following the final 15 mile run. After a blood sample was drawn, it was allowed to clot for 30 minutes at 25° C. before being centrifuged for 15 minutes at 2000 g at 4° C. Serum was aliquoted into 0.65 mL microcentrifuge tubes and stored at −80° C. until being assayed at the end of the study for creatine kinase, canine myoglobin, thiobarbituric acid reactive substances (TBARS), and total antioxidant capacity (TAC) using the commercially available kits described in Example 1.
# [3] = Ex.2 part one, 250 mg/d, 19 L-carnitine dogs that were control dogs in Example 1
# [4] = data collected in Example 1 (then control dogs)
structure (smiles),measurement,setting,value
C[N+](C)(C)C[C@H](O)CC(=O)[O-] [L-carnitine],Myoglobin Least Sq Mean,canine myoglobin [1]; Baseline,10.1 ng/mL
same,Myoglobin Least Sq Mean,"canine myoglobin [1]; Baseline, F",14.77 ng/mL
same,Myoglobin Least Sq Mean,"canine myoglobin [1]; Baseline, M",5.43 ng/mL
same,"Myoglobin, serum, Mean","canine myoglobin [1]; Ex.1, 250 mg/d, Baseline, both sexes",10.0 ng/mL
same,"Myoglobin, serum, Mean","canine myoglobin [1]; Ex.1, 250 mg/d, Baseline, females",17.6 ng/mL
same,"Myoglobin, serum, Mean","canine myoglobin [1]; Ex.1, 250 mg/d, Baseline, males",5.8 ng/mL
same,"Myoglobin, serum, Mean","canine myoglobin [1]; Ex.1, 250 mg/d, Post-run, both sexes",19.2 ng/mL
same,"Myoglobin, serum, Mean","canine myoglobin [1]; Ex.1, 250 mg/d, Post-run, females",24.5 ng/mL
same,"Myoglobin, serum, Mean","canine myoglobin [1]; Ex.1, 250 mg/d, Post-run, males",14.9 ng/mL
same,"Myoglobin, serum, Mean","canine myoglobin [1]; Ex.1, 250 mg/d, Pre-run, both sexes",9.0 ng/mL
same,"Myoglobin, serum, Mean","canine myoglobin [1]; Ex.1, 250 mg/d, Pre-run, females",8.4 ng/mL
same,"Myoglobin, serum, Mean","canine myoglobin [1]; Ex.1, 250 mg/d, Pre-run, males",9.3 ng/mL
same,"Change in Myoglobin, post-run minus pre-run","canine myoglobin [1]; Ex.1, 250 mg/d, females",6.11 ± 3.51 n = 6 ng/mL
same,"Change in Myoglobin, post-run minus pre-run","canine myoglobin [1]; Ex.1, 250 mg/d, males",7.04 ± 3.9 n = 10 ng/mL
same,Serum myoglobin values after exercise,"canine myoglobin [1]; Ex.1, 250 mg/d, post-run, summary text value, control 30.97",19.67 ng/mL
same,Myoglobin Least Sq Mean,canine myoglobin [1]; Post-run,19.67 ng/mL
same,Myoglobin Least Sq Mean,"canine myoglobin [1]; Post-run, F",24.46 ng/mL
same,Myoglobin Least Sq Mean,"canine myoglobin [1]; Post-run, M",14.88 ng/mL
same,Myoglobin Least Sq Mean,canine myoglobin [1]; Pre-run,10.01 ng/mL
same,Myoglobin Least Sq Mean,"canine myoglobin [1]; Pre-run, F",11.06 ng/mL
same,Myoglobin Least Sq Mean,"canine myoglobin [1]; Pre-run, M",8.96 ng/mL
same,Myoglobin Least Sq Mean,"canine myoglobin [1]; Treatment * Sex, F",14.77 ng/mL
same,Myoglobin Least Sq Mean,"canine myoglobin [1]; Treatment * Sex, M",5.43 ng/mL
same,Myoglobin Least Sq Mean,"canine myoglobin [1]; Treatment level, all dogs",10.1 ng/mL
same,"Myoglobin, mixed model Estimate, term Time[Post-run-Pre-run] * Treatment[L-carnitine]","canine myoglobin [1]; serum, model term",−7.625
same,"Myoglobin, mixed model Estimate, term Time[Post-run-Pre-run] * Treatment[L-carnitine] * Sex[F]","canine myoglobin [1]; serum, model term",−3.63
same,"Myoglobin, mixed model Estimate, term Time[Pre-run-Baseline] * Treatment[L-carnitine]","canine myoglobin [1]; serum, model term",0.3222
same,"Myoglobin, mixed model Estimate, term Time[Pre-run-Baseline] * Treatment[L-carnitine] * Sex[F]","canine myoglobin [1]; serum, model term",−0.369
same,"Myoglobin, mixed model Estimate, term Treatment[L-carnitine]","canine myoglobin [1]; serum, model term",1.653
same,"Myoglobin, mixed model Estimate, term Treatment[L-carnitine] * Sex[F]","canine myoglobin [1]; serum, model term",1.582
same,"Crossover activity gain, APM",Labrador Retrievers; [3],"27,697"
same,"Crossover activity gain, APM/kg",Labrador Retrievers; [3],975
same,APM,"Labrador Retrievers; Example 2 part one, 250 mg/d","63,272"
same,APM/kg,"Labrador Retrievers; Example 2 part one, 250 mg/d",2274
same,APM,Labrador Retrievers; [4],"37,621"
same,APM/kg,Labrador Retrievers; [4],1363
same,Serum myoglobin,canine myoglobin [2]; post-run 1 hour,23.83 ng/mL
same,Serum myoglobin,canine myoglobin [2]; post-run 24 hour,9.25 ng/mL
same,Myoglobin,"canine myoglobin [2]; FEMALES, Baseline",17.33 ± 4.7 ng/mL
same,Myoglobin,"canine myoglobin [2]; FEMALES, Post-Run 1 Hr",25.19 ± 4.25 ng/mL
same,Myoglobin,"canine myoglobin [2]; FEMALES, Post-Run 24 Hr",8.08 ± 2.83 ng/mL
same,Myoglobin,"canine myoglobin [2]; FEMALES, Pre-Run",4.88 ± 1.24 ng/mL
same,Myoglobin,"canine myoglobin [2]; MALES, Baseline",22.22 ± 6.92 ng/mL
same,Myoglobin,"canine myoglobin [2]; MALES, Post-Run 1 Hr",22.46 ± 4.41 ng/mL
same,Myoglobin,"canine myoglobin [2]; MALES, Post-Run 24 Hr",4.41 ± 0.64 ng/mL
same,Myoglobin,"canine myoglobin [2]; MALES, Pre-Run",8.69 ± 3.25 ng/mL
same,Myoglobin,"canine myoglobin [2]; Whole Groups, Baseline",19.78 ± 4.13 ng/mL
same,Myoglobin,"canine myoglobin [2]; Whole Groups, Post-Run 1 Hr, Post-Run 1 Hr",23.83 ± 3.02 ng/mL
same,Myoglobin,"canine myoglobin [2]; Whole Groups, Post-Run 24 Hr, Post-Run 24 Hr",6.25 ± 1.47 ng/mL
same,Myoglobin,"canine myoglobin [2]; Whole Groups, Pre-Run",6.78 ± 1.74 ng/mL
